Each structure is given as a SMILES string. pIC50: −log10 of the molar value.

A word on the pIC50: it is the IC50 on a negative log10 scale, so that one unit is a factor of ten.

The target of the test is T1, human recombinant CRF-1 receptor (Homo sapiens, UniProt P34998).
T1 construct: expressed in transfected cells; host or cells: CHO cells (G418-selected)
T1 sequence (P34998 24-415): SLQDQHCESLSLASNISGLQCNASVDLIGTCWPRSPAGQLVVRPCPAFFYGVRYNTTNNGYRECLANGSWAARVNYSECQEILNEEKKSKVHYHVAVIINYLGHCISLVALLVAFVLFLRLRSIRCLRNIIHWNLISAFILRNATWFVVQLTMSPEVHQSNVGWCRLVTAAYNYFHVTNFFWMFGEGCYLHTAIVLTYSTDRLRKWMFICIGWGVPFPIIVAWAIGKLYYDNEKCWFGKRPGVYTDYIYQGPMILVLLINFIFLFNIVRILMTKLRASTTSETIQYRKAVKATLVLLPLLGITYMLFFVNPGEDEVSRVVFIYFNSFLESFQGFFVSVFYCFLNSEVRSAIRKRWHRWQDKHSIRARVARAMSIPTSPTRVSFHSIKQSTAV
Kind of test: CRF-1 receptor antagonism, HTRF cAMP assay in CHO cells in the presence of 1 nM CRF. In kind it is cell-based. The conditions noted are these: CHO cells expressing human recombinant CRF-1; inhibition of the effect of 1 nM CRF on cAMP. The method, then: The CRF-1 or CRF-2α receptor antagonistic activity of the agents of the invention has been determined in vitro in the following assay:
Chinese hamster ovary (CHO) cells expressing either the human recombinant CRF-1 or CRF-2a receptors (Chen et al., Proc Natl Acad Sci USA 90, 8967-8971, 1993; Liaw et al., Endocrinology 137, 72-77, 1996) are propagated in Dulbecco's modified Eagle medium supplemented with 10% foetal calf serum, non-essential amino acids, 100 U/ml penicillin, 100 mg/l streptomycin and 1 g/l geneticin (G418). For cyclic AMP determinations the Homogeneous Time-Resolved Fluoresce (HTRF) cAMP dynamic 2 kit (Cisbio International, France) was used as per manufacturers' instructions. CHO cells, previously cryopreserved, were thawed, centrifuged for 7 mins at 1200 rpm and resuspended in serum free media, then pipetted out onto clear bottomed black tissue culture treated 384-well microtitre plates (Corning Inc, US) at 2,000 cells per well. Compounds of the invention, prepared in DMSO, and subsequently diluted 50 fold in assay buffer (1× Hanks balanced salt solution, 0.2% (w/v) bovine serum albumin, 1.7 mM isobutylmethylxanthine and 10 mM Hepes, pH 7.4) are then added onto the cell containing plate where a further 2 fold dilution is performed and incubated for 15 min. Following incubation, buffer containing a 5 times final concentration of agonist is added to the plate and incubated for 30 min. Finally, d2 dye labelled cAMP and cryptate labeled anti-cAMP antibody, both made in lysis buffer, are added to the plate followed by a settling period of 1 hour. During the settling period cAMP produced by the cells competes with the d2 labelled cAMP for the anti-cAMP cryptate. The plate is read on the Pherastar (BMG, Germany). Increasing levels of endogenous cAMP produced by cells can be followed by a decrease of fluorescent signal and vice versa. Values represented by a change in arbitrary fluorescence units are converted into cAMP concentrations by use of a standard curve the reagents for which are supplied with the kit. Antagonist dose response curves (1 nM-30 μM) are constructed in the presence of 1 nM CRF. IC50 values of antagonists are calculated by fitting the percent inhibition of the effect of CRF by increasing concentrations of the antagonists. The fit is performed using the nonlinear logistic function of the Activitybase software package v 5.4.5.27 (IDBS, UK).
On the technique in general: Time-resolved FRET reads energy transfer from a long-lived donor to a nearby acceptor.
On to `Cc1cc(NC[C@H]2CC[C@H](NC(=O)c3cc(C(F)(F)F)ccc3Cl)CC2)n(-c2ccc(Cl)cc2)n1` [Example 19.116, Trans-2-Chloro-N-(4-{[2-(4-chloro-phenyl)-5-methyl-2H-pyrazol-3-ylamino]-methyl}-cyclohexyl)-5-trifluoromethyl-benzamide], for which the pIC50 was 7.23.
Next, `O=C(N[C@H]1CC[C@H](CNc2cccc3ncccc23)CC1)c1cccc(C(F)(F)F)c1` [Example 13, Trans-N-[4-(Quinolin-5-ylaminomethyl)-cyclohexyl]-3-trifluoromethyl-benzamide]: 7.15; `O=C(N[C@H]1CC[C@H](CNc2nnnn2-c2ccccc2)CC1)c1cc(C(F)(F)F)ccc1Cl` [Example 19.100, Trans-2-Chloro-N-{4-[(1-phenyl-1H-tetrazol-5-ylamino)-methyl]-cyclohexyl}-5-trifluoromethyl-benzamide]: 7.54.
Next, `Cc1cccc2[nH]nc(NC[C@H]3CC[C@H](NC(=O)c4cc(C(F)(F)F)ccc4Cl)CC3)c12` [Example 19.65, Trans-2-chloro-N-(4-((4-methyl-1H-indazol-3-ylamino)methyl)cyclohexyl)-5-(trifluoromethyl) benzamide]: 7.28.
Turning to `O=C(N[C@H]1CC[C@H](CNc2n[nH]cc2-c2ccc(Cl)cc2)CC1)c1cc(C(F)(F)F)ccc1Cl` [Example 19.80, Trans-2-chloro-N-(4-((4-(4-chlorophenyl)-1H-pyrazol-3-ylamino)methyl)cyclohexyl)-5-(trifluoromethyl) benzamide], the pIC50 was 7.82.
Next, `CC(C)c1cc(NC[C@H]2CC[C@H](NC(=O)c3cc(C(F)(F)F)ccc3Cl)CC2)n[nH]1` [Example 4.16, Trans-2-Chloro-N-{4-[(5-isopropyl-1H-pyrazol-3-ylamino)-methyl]-cyclohexyl}-5-trifluoromethyl-benzamide]: 7.20; `Cc1noc(NC[C@H]2CC[C@H](NC(=O)c3cc(C(F)(F)F)ccc3Cl)CC2)c1C` [Example 19.102, Trans-2-Chloro-N-{4-[(3,4-dimethyl-isoxazol-5-ylamino)-methyl]-cyclohexyl}-5-trifluoromethyl-benzamide]: 7.12; `Cc1cccnc1NC[C@H]1CC[C@H](NC(=O)c2cc(C(F)(F)F)ccc2Cl)CC1` [Example 1, Trans-2-Chloro-N-{4-[(3-methyl-pyridin-2-ylamino)-methyl]-cyclohexyl}-5-trifluoromethyl-benzamide]: 7.42.
Next, `COc1ccc(Cl)c(NC[C@H]2CC[C@H](NC(=O)c3cc(C(F)(F)F)ccc3Cl)CC2)n1` [Example 19.98, Trans-2-Chloro-N-{4-[(3-chloro-6-methoxy-pyridin-2-ylamino)-methyl]-cyclohexyl}-5-trifluoromethyl-benzamide]: 7.28.
Next, `O=C(N[C@H]1CC[C@H](CNc2cccnc2)CC1)c1cc(C(F)(F)F)ccc1Cl` [Example 4.21, Trans-2-Chloro-N-[4-(pyridin-3-ylaminomethyl)-cyclohexyl]-5-trifluoromethyl-benzamide]: 7.12; `Cc1cc(NC[C@H]2CC[C@H](NC(=O)c3cc(Cl)cnc3C)CC2)ncc1F` [Example 19.54, Trans-5-chloro-N-(4-((5-fluoro-4-methylpyridin-2-ylamino)methyl)cyclohexyl)-2-methylnicotinamide]: 7.21; `Cc1ccncc1NC[C@H]1CC[C@@H](NC(=O)c2cc(C(F)(F)F)ccc2Cl)CC1` [Example 14.1, Cis-2-chloro-N-((1s,4s)-4-((4-methylpyridin-3-ylamino)methyl)cyclohexyl)-5-(trifluoromethyl)benzamide]: 5.66.
Regarding `O=C(N[C@H]1CC[C@H](CNc2n[nH]c3ccc(F)cc23)CC1)c1cc(C(F)(F)F)ccc1Cl` [Example 19.62, Trans-2-chloro-N-(4-((5-fluoro-1H-indazol-3-ylamino)methyl)cyclohexyl)-5-(trifluoromethyl) benzamide], the pIC50 was 7.05.
Next, `O=C(N[C@H]1CC[C@H](Cn2ccc(-c3ccccc3)n2)CC1)c1cc(C(F)(F)F)ccc1Cl` [Example 22.3, 2-Chloro-N-[4-(3-phenyl-pyrazol-1-ylmethyl)-cyclohexyl]-5-trifluoromethyl-benzamide]: 6.63.
Next, `Cc1ncc(Cl)cc1C(=O)N[C@H]1CC[C@H](CNc2ccc(F)cn2)CC1` [Example 19.108, Trans-5-Chloro-N-{4-[(5-fluoro-pyridin-2-ylamino)-methyl]-cyclohexyl}-2-methyl-nicotinamide]: 7.14; `[2H]C([2H])([2H])c1ncc(NC[C@H]2CC[C@H](NC(=O)c3cc(C(F)(F)F)ccc3Cl)CC2)cc1Cl` [Example 19.104, Trans-2-Chloro-N-{4-[(5-chloro-6-d3-methyl-pyridin-3-ylamino)-methyl]-cyclohexyl}-5-trifluoromethyl-benzamide]: 7.10.
Next, `O=C(N[C@H]1CC[C@H](CNc2cc(-c3ccc(F)cc3)n[nH]2)CC1)c1cc(C(F)(F)F)ccc1Cl` [Example 4.11, Trans-2-Chloro-N-(4-{[5-(4-fluoro-phenyl)-2H-pyrazol-3-ylamino]-methyl}-cyclohexyl)-5-trifluoromethyl-benzamide]: 7.21.
On to `Cn1nc(NC[C@H]2CC[C@H](NC(=O)c3cc(C(F)(F)F)ccc3Cl)CC2)c2ccccc21` [Example 19.70, Trans-2-chloro-N-(4-((1-methyl-1H-indazol-3-ylamino)methyl)cyclohexyl)-5-(trifluoromethyl) benzamide], for which the pIC50 was 7.54.
Consider `CC(Nc1ccccc1)[C@H]1CC[C@H](NC(=O)c2cc(C(F)(F)F)ccc2Cl)CC1` (stereo partly drawn) [Example 15, Trans-2-Chloro-N-[4-(1RS-phenylamino-ethyl)-cyclohexyl]-5-trifluoromethyl-benzamide], for which the pIC50 is 6.97.
Next, `Cc1ncc(Cl)cc1C(=O)N[C@H]1CC[C@H](CNc2cc(C(F)(F)F)n[nH]2)CC1` [Example 19.107, Trans-5-Chloro-2-methyl-N-{4-[(5-trifluoromethyl-2H-pyrazol-3-ylamino)-methyl]-cyclohexyl}-nicotinamide]: 6.93; `O=C(N[C@H]1CC[C@H](CNc2cc(C3CC3)n[nH]2)CC1)c1cc(C(F)(F)F)ccc1Cl` [Example 8, Trans-2-Chloro-N-{4-[(5-cyclopropyl-2H-pyrazol-3-ylamino)-methyl]-cyclohexyl}-5-trifluoromethyl-benzamide]: 7.33.
Next, `Cc1nc(C)n(C[C@H]2CC[C@H](NC(=O)c3cc(C(F)(F)F)ccc3Cl)CC2)n1` [Example 21.4, 2-Chloro-N-[4-(3,5-dimethyl-[1,2,4]triazol-1-ylmethyl)-cyclohexyl]-5-trifluoromethyl-benzamide]: 6.52; `Cc1ncc(Cl)cc1C(=O)N[C@H]1CC[C@H](Cn2nc(C)c(C)c2C)CC1` [Example 18, Trans-5-Chloro-2-methyl-N-[4-(3,4,5-trimethyl-pyrazol-1-ylmethyl)-cyclohexyl]-nicotinamide]: 6.24; `O=C(N[C@H]1CC[C@H](CNc2[nH]ncc2-c2cccnc2)CC1)c1cc(C(F)(F)F)ccc1Cl` [Example 19.103, Trans-2-Chloro-N-{4-[(4-pyridin-3-yl-2H-pyrazol-3-ylamino)-methyl]-cyclohexyl}-5-trifluoromethyl-benzamide]: 7.43.
Next, `O=C(N[C@H]1CC[C@H](CNc2n[nH]c3c2CCCC3)CC1)c1cc(C(F)(F)F)ccc1Cl` [Example 19.49, Trans-2-chloro-N-(4-((4,5,6,7-tetrahydro-1H-indazol-3-ylamino)methyl)cyclohexyl)-5-(trifluoromethyl) benzamide]: 7.51; `C[C@@H]1C[C@@H](NC(=O)c2cc(C(F)(F)F)ccc2Cl)CC[C@@H]1CNc1cc(-c2ccc(F)cc2)[nH]n1` (racemic) [Example 1.35a, (+/−)-2-Chloro-N-((1S,3R,4S)-4-{[5-(4-fluoro-phenyl)-1H-pyrazol-3-ylamino]-methyl}-3-methyl-cyclohexyl)-5-trifluoromethyl-benzamide]: 6.70.
